Laboratory results from patent publication US20240358692A1, “TREATMENT OF SCLERODERMA” (Aisa Pharma, Inc., priority 2023, published 2024).

Tested on: participants with SSc-RP
Assay: SHAQ - Visual Analog Scale - Pain
Assay type: in vivo, human
Conditions: for % change in Pain: SHAQ, mITT Part A
Excerpt: The standard, validated, patient reported outcome measures tool for SSc patients, the Scleroderma Health Assessment Questionnaire (SHAQ), will be used to assess the participant qualify of life. Details are attached in the Appendix. The participant quality of life will be scored, and a disability index calculated for each questionnaire completed by the patient at Screening and each in-clinic visit. The absolute change in participant quality of life from baseline to the end of each dosing period will be calculated similar to frequency data as before.
The standard, validated, patient reported outcome measures tool for SSc patients, the SHAQ, was collected at the time points specified in the study schedules (FIG. 2 and FIGS. 4A and 4B) to assess the participant's quality of life. The SHAQ included a Raynaud's VAS that will also be reported separately.
Pain on the SHAQ outcome measure on the first line in table F is a composite of all pain experienced in patients with SSc, comprising joint pain, back pain, headache, odynophagia, skin ulcer related discomfort, Raynaud's, and neuropathic pain. Aisa Pharma believes, based on the biologic attributes and actions of cilnidipine that differ from most dihydropyridine calcium channel antagonists that cilnidipine might have direct analgesic effects in certain pain conditions and in fact has been designated to receive evaluation through the […] Preclinical Pain Screening Platform Program to investigate the drug in multiple in vitro and in vivo preclinical models of pain that are validated and predictive of effects in man.

[1] = Any Cilnidipine (N = 17), Day 12, PP Population, Part A
[2] = Cilnidipine 10 mg, SSc patients, PP, Part A
[3] = Cilnidipine 20 mg, SSc patients, PP, Part A
[4] = Modified ITT Population-Part A, Day 12, dose cilnidipine 10 mg, tadalafil 5 mg, alone or combined as labelled
[5] = Modified ITT Population-Part A, Day 12, dose cilnidipine 20 mg, tadalafil 5 mg, alone or combined as labelled
[6] = Pooled Cilnidipine (N = 8), Day 12, PP Population, Part A
[7] = pooled Cilnidipine 10 mg and Cilnidipine 10 mg + Tadalafil 5 mg
[8] = pooled Cilnidipine 20 mg and Cilnidipine 20 mg + Tadalafil 5 mg
[9] = pooled cilnidipine 10 mg and 20 mg arms (combination: + tadalafil 5 mg)

Compound: COCCOC(=O)C1=C(C)NC(C)=C(C(=O)OC/C=C/c2ccccc2)C1c1cccc([N+](=O)[O-])c1 (stereo not shown) [Cilnidipine]
- SHAQ Visual Analogue Scale - Pain, Change from Baseline, Mean (SD) [1]: −0.575 (1.0318)
- SHAQ Visual Analogue Scale - Pain, Change from Baseline, Median [1]: −0.600
- SHAQ Visual Analogue Scale - Pain, In-Clinic Visit (Day 12), Mean (SD) [1]: 2.476 (1.7312)
- SHAQ Visual Analogue Scale - Pain, In-Clinic Visit (Day 12), Median [1]: 2.200
- SHAQ Visual Analogue Scale - Pain, Percent Change from Baseline, Mean (SD) [1]: −22.77 (31.937) %
- SHAQ Visual Analogue Scale - Pain, Percent Change from Baseline, Median [1]: −22.58%
- SHAQ VAS Pain, Change from Baseline, Max [2]: 0.30
- SHAQ VAS Pain, Change from Baseline, Mean [2]: −0.100
- SHAQ VAS Pain, Change from Baseline, Median [2]: 0.000
- SHAQ VAS Pain, Change from Baseline, Min [2]: −0.70,
- SHAQ VAS Pain, Change from Baseline, Q1 [2]: −0.350,
- SHAQ VAS Pain, Change from Baseline, Q3 [2]: 0.150
- SHAQ VAS Pain, Day 12, Max [2]: 3.60
- SHAQ VAS Pain, Day 12, Mean [2]: 1.875
- SHAQ VAS Pain, Day 12, Median [2]: 1.950
- SHAQ VAS Pain, Day 12, Min [2]: 0.00,
- SHAQ VAS Pain, Day 12, Q1 [2]: 0.500,
- SHAQ VAS Pain, Day 12, Q3 [2]: 3.250
- SHAQ VAS Pain, Percent Change from Baseline, Max [2]: 11.5
- SHAQ VAS Pain, Percent Change from Baseline, Mean [2]: −9.88
- SHAQ VAS Pain, Percent Change from Baseline, Median [2]: 0.00
- SHAQ VAS Pain, Percent Change from Baseline, Min [2]: −41.2,
- SHAQ VAS Pain, Percent Change from Baseline, Q1 [2]: −41.18,
- SHAQ VAS Pain, Percent Change from Baseline, Q3 [2]: 11.54
- % change in Pain (Cilnidipine 20 mg (n = 3)): −53%
- SHAQ VAS Pain, Change from Baseline, Max [3]: 0.70
- SHAQ VAS Pain, Change from Baseline, Mean [3]: −0.650
- SHAQ VAS Pain, Change from Baseline, Min [3]: −2.00,
- SHAQ VAS Pain, Change from Baseline, Q1 [3]: −1.400,
- SHAQ VAS Pain, Change from Baseline, Q3 [3]: 0.100
- SHAQ VAS Pain, Day 12, Max [3]: 4.30
- SHAQ VAS Pain, Day 12, Mean [3]: 1.875
- SHAQ VAS Pain, Day 12, Median [3]: 1.400
- SHAQ VAS Pain, Day 12, Min [3]: 0.40,
- SHAQ VAS Pain, Day 12, Q1 [3]: 0.550,
- SHAQ VAS Pain, Day 12, Q3 [3]: 3.200
- SHAQ VAS Pain, Percent Change from Baseline, Mean [3]: −34.56
- SHAQ VAS Pain, Percent Change from Baseline, Min [3]: −55.6,
- SHAQ VAS Pain, Percent Change from Baseline, Q1 [3]: −54.44,
- SHAQ VAS Pain, Percent Change from Baseline, Q3 [3]: −14.67
- Visual Analog Scale-Pain, Change from Baseline, Mean [4]: −0.100
- Visual Analog Scale-Pain, Change from Baseline, Median [4]: 0.000
- Visual Analog Scale-Pain, Percent Change from Baseline, Median [4]: 0.00%
- Visual Analog Scale-Pain, Change from Baseline, Mean [5]: −1.100
- Visual Analog Scale-Pain, Change from Baseline, Median [5]: −0.800
- Visual Analog Scale-Pain, In Clinic Visit (Day 12), Median (Modified ITT Population-Part A, dose cilnidipine 20 mg, tadalafil 5 mg, alone or combined as labelled): 0.700
- SHAQ Visual Analogue Scale - Pain, In-Clinic Visit (Day 12), Median (Pooled Cilnidipine 10 mg and Cilnidipine 10 mg + Tadalafil 5 mg (N = 9), Day 12, PP Population, Part A): 2.900
- SHAQ Visual Analogue Scale - Pain, In-Clinic Visit (Day 12), Median (Pooled Cilnidipine 20 mg and Cilnidipine 20 mg + Tadalafil 5 mg (N = 8), Day 12, PP Population, Part A): 2.100
- SHAQ Visual Analogue Scale - Pain, Change from Baseline, Mean (SD) [6]: −0.375 (0.8311)
- SHAQ Visual Analogue Scale - Pain, In-Clinic Visit (Day 12), Mean (SD) [6]: 1.875 (1.5944)
- SHAQ Visual Analogue Scale - Pain, Percent Change from Baseline, Mean (SD) [6]: −23.98 (32.893) %
- % change in Pain (Pooled Cilnidipine (n = 7)): −31%
- % Δ from baseline, VAS Pain median (Pooled cilnidipine (n=6)): −45%
- SHAQ VAS-Pain (change) (cilnidipine 20 mg): −1.1
- VAS Pain Change from Baseline Max [7]: 0.60
- VAS Pain Change from Baseline Mean [7]: −0.633
- VAS Pain Change from Baseline Median [7]: −0.700
- VAS Pain Change from Baseline Min [7]: −2.80,
- VAS Pain Change from Baseline Q1 [7]: −1.100,
- VAS Pain Change from Baseline Q3 [7]: 0.000
- VAS Pain Day 12 Max [7]: 5.50
- VAS Pain Day 12 Median [7]: 2.900
- VAS Pain Day 12 Min [7]: 0.00,
- VAS Pain Day 12 Q1 [7]: 1.000,
- VAS Pain Day 12 Q3 [7]: 3.800
- VAS Pain Percent Change from Baseline Max [7]: 18.8%
- VAS Pain Percent Change from Baseline Mean [7]: −20.07%
- VAS Pain Percent Change from Baseline Median [7]: −21.87%
- VAS Pain Percent Change from Baseline Min [7]: −72.2, %
- VAS Pain Percent Change from Baseline Q1 [7]: −37.46, %
- VAS Pain Percent Change from Baseline Q3 [7]: 5.77%
- VAS Pain Change from Baseline Max [8]: 0.90
- VAS Pain Change from Baseline Mean [8]: −0.700
- VAS Pain Change from Baseline Median [8]: −0.650
- VAS Pain Change from Baseline Min [8]: −2.00,
- VAS Pain Change from Baseline Q1 [8]: −1.700,
- VAS Pain Change from Baseline Q3 [8]: −0.100
- VAS Pain Day 12 Max [8]: 5.30
- VAS Pain Day 12 Mean [8]: 2.000
- VAS Pain Day 12 Median [8]: 2.100
- VAS Pain Day 12 Min [8]: 0.40,
- VAS Pain Day 12 Q1 [8]: 0.700,
- VAS Pain Day 12 Q3 [8]: 2.200
- VAS Pain Percent Change from Baseline Max [8]: 20.5%
- VAS Pain Percent Change from Baseline Median [8]: −51.06%
- VAS Pain Percent Change from Baseline Min [8]: −58.6, %
- VAS Pain Percent Change from Baseline Q1 [8]: −55.56, %
- VAS Pain Percent Change from Baseline Q3 [8]: −4.55%
- VAS Pain Change from Baseline Max [9]: 0.30
- VAS Pain Change from Baseline Median [9]: −0.500
- VAS Pain Change from Baseline Min [9]: −2.00,
- VAS Pain Change from Baseline Q1 [9]: −0.800,
- VAS Pain Change from Baseline Q3 [9]: 0.000
- VAS Pain Day 12 Max [9]: 3.60
- VAS Pain Day 12 Median [9]: 1.000
- VAS Pain Day 12 Min [9]: 0.00,
- VAS Pain Day 12 Q1 [9]: 0.400,
- VAS Pain Day 12 Q3 [9]: 2.900
- VAS Pain Percent Change from Baseline Max [9]: 11.5%
- VAS Pain Percent Change from Baseline Min [9]: −55.6, %
